Results on one compound are retold here after patent publication US9567318B2, “Substituted pyrimidine compounds and uses thereof” (Memorial Sloan-Kettering Cancer Center, priority 2009, dated 2017).

“Also recorded” adds a separate entry of the source.

Test [1] concerns HER2, Raf-1, Akt, Hsp70 in SKBr3 cells. Nature of the test: Western blotting of Hsp90 onco-client proteins and Hsp70 in SKBr3 cells. Format: cell-based, human. The note with it: SKBr3 cells, 24 h. On the procedure:
FIG. 3. Testing strategy for the discovery of YK5. a, b) SKBr3 cells were treated for 24 h with the indicated concentrations of inhibitors and cells were lysed for western blot (WB) analysis. β-actin was used as loading control. The data are consistent with those obtained from multiple repeat experiments (n≧3). c) The ability of the indicated inhibitors to compete with GM-Cy3B for Hsp90 binding in SKBr3 cell extracts was examined by fluorescence polarization. Values recorded in wells with added inhibitor were normalized to values read in control wells and plotted against the concentration of tested inhibitor. Drugs were assayed in triplicate. All compounds were used as DMSO stocks. Points, mean; bars, s.d. d) Growth inhibition: SKBr3 cells were incubated in triplicate with increasing concentrations of compound and growth over 72 h was assessed. Y-axis values below 0% represent cell death of the starting population. HER2 degradation was analyzed as in panel a), and gels were quantified by densitometry. Recorded values were normalized to control (vehicle only treated cells) and data graphed against YK5 concentration. Error bars represent the s.d. of the mean (n=3).
FIG. 8. […] Points, mean; bars, s.d. Yaxis values below 0% represent cell death of the starting population. c) Streptavidin beads (50 μl) were incubated with the indicated concentrations of YK55, YK56 or D-biotin to immobilize the corresponding compounds on beads. Beads (50 μl) were probed with SKBr3 cell extracts (500 μg), and the precipitated Hsp70 analyzed by western blot and quantified by […]. Results from three independent experiments were graphed to determine the relative binding affinity of YKs. Points, mean; bars, s.d. d) Structure of representative YKs. YK55 and YK56 are the biotinylated derivatives of YK54 and YK57, respectively.
FIG. 9. […] Cells were treated for 24 h with the indicated concentrations of YK149 and YK5. Cells were lysed and proteins analyzed by western blotting. b) Examples of the compounds of the present subject matter inhibit the activity of the oncogenic STAT3 in the triple-negative breast cancer cells MDA-MB-468. Cells were treated for the indicated times with compounds or vehicle and proteins analyzed by western blot. (c) Examples of the compounds of the present subject matter dose-dependently induce apoptosis in the acute myeloid leukemia cells MOLM13. Cells were treated for 24 h with the indicated concentration of compounds and the increase in caspase3,7 activity was measured and compared to only vehicle (DMSO) treated cells. Caspase-3,7 activity was a measure of compound potency in cleaving the caspase substrate Z-DEVD-R110 and releasing rhodamine. The percentage increase in apoptotic cells was calculated by comparing the fluorescence readings obtained from compounds with those obtained from vehicle (DMSO)-treated cells.
Western Blotting. Cells were grown to 60-70% confluence and treated with inhibitor or DMSO vehicle for the indicated times. Protein lysates were prepared in 50 mM Tris pH 7.4, 150 mM NaCl and 1% NP-40 lysis buffer. Protein concentrations were measured using the BCA kit (Pierce) according to the manufacturer's instructions. […]

Test [2] concerns the target T1, recombinant human Hsp70 (Homo sapiens, UniProt P0DMV8).
T1 construct: purchased Stressgen
Kind of test: Hsp70 competition assay using YK55 beads, recombinant protein. Format: binding. The note with it: compared with MRC-5 Hsp70s. The protocol: FIG. 14. YK5 has a higher affinity for tumor Hsp70s and selectively kills cancer cells. (a-c) Cells were treated with the indicated concentrations of inhibitors for the times presented, and metabolically viable cells by Alamar blue uptake as described in Methods (a). Molecular markers of apoptosis (PARP and caspase-3 cleavage) were analyzed in cells treated for 24 h with indicated concentrations of inhibitors, by western blotting (b, c). Morphology of cells treated for 24 h with vehicle or the indicated inhibitors was analyzed by light microscopy (c). (d) Extracts (500 μg) were incubated overnight with beads containing D-biotin (75 μM) or the indicated concentrations of YK55 added to 50 μl streptavidin beads. HS=heat shocked. (e) SKBr3 (200 μg) and MRC-5 (400 μg) extracts and recombinant human Hsp70 (2 μg) were incubated for 3 h with the indicated concentrations with YK5, followed by precipitation of Hsp70 complexes on YK55-beads (50 μM YK55 added to 50 μl streptavidin beads). Data obtained from three independent experiments were graphed (right). Points, mean; bars, s.d.
In a second experiment, the ability of soluble YK5 to compete YK55-binding to normal and cancer cell Hsp70 species were tested (FIG. 14e). […] Interaction of YK5 was even weaker with recombinant human Hsp70 (FIG. 14e).
Hsp70 Competition Assay Using the YK55 Beads. […]

Test [3] relates to Kasumi-1 acute myeloid leukemia cells. Kind of test: Growth Inhibition Assay (Alamar blue), Kasumi-1. Format: cell-based, human. Conditions: Homo sapiens, Kasumi 1, 72 h, Kasumi-1 cells. The gist of the method: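 Adherent SKBr3 cells seeded at 8,000/well and suspension Kasumi-1 cells at 20,000/well, rested 24 h at 37 °C, then treated in triplicate for 72 h. Viability read by Alamar blue (440 µM) fluorescence (ex 530/em 580 nm) after 6 h; growth inhibition calculated versus untreated controls, corrected for the time-zero cell population.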

The test system of test [4] is infiltrating ductal carcinoma tissue. Nature of the test: Ex vivo treatment of fresh breast tumor tissue. Conditions: 5 μM, 24 h post addition. Also noted: species or system human.

T1 sequence (P0DMV8 whole entry): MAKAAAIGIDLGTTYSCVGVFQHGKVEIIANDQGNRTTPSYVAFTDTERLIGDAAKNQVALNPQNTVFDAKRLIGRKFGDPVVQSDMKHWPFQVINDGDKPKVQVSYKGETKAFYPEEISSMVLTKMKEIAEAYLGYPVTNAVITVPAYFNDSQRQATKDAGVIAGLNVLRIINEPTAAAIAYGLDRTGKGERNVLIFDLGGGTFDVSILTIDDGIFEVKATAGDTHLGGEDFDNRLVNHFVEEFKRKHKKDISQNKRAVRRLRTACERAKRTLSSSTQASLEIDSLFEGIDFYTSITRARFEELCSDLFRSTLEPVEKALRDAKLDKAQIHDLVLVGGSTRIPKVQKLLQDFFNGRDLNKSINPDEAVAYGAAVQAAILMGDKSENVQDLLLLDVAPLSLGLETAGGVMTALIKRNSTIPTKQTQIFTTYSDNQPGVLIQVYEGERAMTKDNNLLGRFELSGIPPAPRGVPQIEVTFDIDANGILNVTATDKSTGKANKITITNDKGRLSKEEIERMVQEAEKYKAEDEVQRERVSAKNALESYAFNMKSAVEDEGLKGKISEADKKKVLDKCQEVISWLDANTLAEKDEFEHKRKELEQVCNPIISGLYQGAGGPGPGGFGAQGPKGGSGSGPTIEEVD

As to `C=CC(=O)Nc1cc(N)nc(Sc2c(OC)nc(N3CCN(C)CC3)nc2OC)n1` [YK5, N-(6-amino-2-(4,6-dimethoxy-2-(4-methylpiperazin-1-yl)pyrimidin-5-ylthio)pyrimidin-4-yl)acrylamide], the “feed-back induction of Hsp70 (heat shock response)” value in test [1] is on record as “undetected”. The “degradation of Hsp90 onco-client proteins (HER2, Raf-1, Akt)” value in test [1] (western blot) is “dose-dependently reduce the steady-state levels of HER2 and Raf-1; also recorded: induced the degradation of HER2, Raf-1 and Akt kinases”. In addition, in test [2], the “interaction with recombinant human Hsp70” value is given as “even weaker”. The compound also returned an IC50 in test [3] of 0.4 to 0.6 µM. The “tumor cells dead or dying” value in test [4] is recorded as 60%.
